The source of these data is patent publication US9550756B2, “Pyridazinone compounds as phosphodiesterase inhibitors and methods of treating disorders” (Takeda Pharmaceutical Company Limited, priority 2009, dated 2017).

Each structure is given as a SMILES string.

In the first series the test system is Male ICR mice. Kind of series: Improvement of MK-801-induced prepulse inhibition (PPI) deficits. Type of series: in vivo. The settings on record: 0.3 mg/kg, MK-801 0.3 mg/kg s.c., FIG. 3. An excerpt: Male ICR mice were supplied by CLEA Japan, Inc (Japan). After arrival to the vivarium, animals were allowed a minimum of 1 week for acclimation. They were housed under a 12:12-h light/dark cycle in a temperature- and humidity-controlled laboratory and allowed food and water ad libitum. The care and use of the animals and the experimental protocols used in this research were approved by the Experimental Animal Care and Use Committee of Takeda Pharmaceutical Company, Ltd (Osaka, Japan).
The compounds were suspended in 0.5% methylcellulose in saline or distilled water, and administered by intraperitoneally (i.p.) or orally (p.o.), respectively. Methamphetamine (Dainippon Sumitomo Pharma Co., Ltd.) and MK-801 (Sigma-Aldrich, St Louis, Mo.) were dissolved in saline, and administered subcutaneously (s.c.). […]
PPI is a measure of sensorimotor gating and is one of a few neuropsychological measures in which humans and rodents can be evaluated in a similar fashion (Psychopharmacology (Berl) 2001, vol. 156: 117-154). We evaluated whether compound could reverse PPI deficits induced by MK-801 using male ICR mice. […] Placement of mice inside the cylinders allowed the whole-body startle responses induced by the acoustic stimuli to be measured via the transduction of movement into analog signals by a piezoelectric unit attached to the platform. […]
Turning to `Cc1nc2n(c(=O)c1CCN1CCC(c3noc4cc(F)ccc34)CC1)CCCC2` [Risperidone], the “MK-801-induced PPI deficits” value is “significantly reversed”.

System in another series: not given
Assay: not given
Settings: not given
For `O=c1ccn(-c2cccc(C(F)(F)F)c2)nc1-c1ccnn1-c1ccc(Cl)cc1` [Example 3, 3-[1-(4-Chlorophenyl)-1H-pyrazol-5-yl]-1-[3-(trifluoromethyl)phenyl]pyridazin-4(1H)-one], the melting point – broadly, the temperature, or range, at which the solid turns liquid – fell in the range of 166 to 167 °C. Take `O=c1ccn(-c2ccncc2)nc1-c1ccnn1-c1ccccc1` [Example 31, 3-(1-Phenyl-1H-pyrazol-5-yl)-1-pyridin-4-ylpyridazin-4(1H)-one]: the melting point was 202 to 203 °C.

As for `CC(C)n1nccc1-c1nn(-c2cccc(C(F)(F)F)c2)ccc1=O` [Example 33, 3-[1-(1-Methylethyl)-1H-pyrazol-5-yl]-1-[3-(trifluoromethyl)phenyl]pyridazin-4(1H)-one], the melting point lay within 183 to 184 °C.

Regarding `CC(C)Cn1nccc1-c1nn(-c2cccc(C(F)(F)F)c2)ccc1=O` [Example 34, 3-[1-(2-Methylpropyl)-1H-pyrazol-5-yl]-1-[3-(trifluoromethyl)phenyl]pyridazin-4(1H)-one], the melting point was 120 to 121 °C. The same measure, in the same setting: the result for `O=c1ccn(-c2cccc(C(F)(F)F)c2)nc1-c1ccnn1-c1ccccn1` [Example 35, 3-(1-Pyridin-2-yl-1H-pyrazol-5-yl)-1-[3-(trifluoromethyl)phenyl]pyridazin-4(1H)-one] reads 189 to 190 °C. `O=c1ccn(-c2cccc(Oc3nc4ccccc4[nH]3)c2)nc1-c1ccnn1-c1ccccc1` [Example 37, 1-[3-(1H-Benzimidazol-2-yloxy)phenyl]-3-(1-phenyl-1H-pyrazol-5-yl)pyridazin-4(1H)-one] came in with a melting point of 149 to 150 °C. The same measure, in the same setting: the result for `O=c1ccn(-c2cccc(C(F)(F)F)c2)nc1-c1ncnn1-c1ccccc1` [Example 42, 3-(1-Phenyl-1H-1,2,4-triazol-5-yl)-1-[3-(trifluoromethyl)phenyl]pyridazin-4(1H)-one] reads 167 to 168 °C. Still for that read-out and setting: next, `O=c1c(OC(F)F)cn(-c2cccc(C(F)(F)F)c2)nc1-c1ccnn1-c1ccccc1` [Example 62, 5-(Difluoromethoxy)-3-(1-phenyl-1H-pyrazol-5-yl)-1-[3-(trifluoromethyl)phenyl]pyridazin-4(1H)-one]: 132 to 134 °C; `O=c1c(O)cn(-c2ccccc2F)nc1-c1ccnn1-c1ccccc1` [Example 63, 1-(2-Fluorophenyl)-5-hydroxy-3-(1-phenyl-1H-pyrazol-5-yl)pyridazin-4(1H)-one]: 218 to 220 °C. The same measure, in the same setting: the result for `CC(C)n1cc(-c2nn(-c3cccc(C(F)(F)F)c3)ccc2=O)c(-c2ccccc2)n1` [Example 77, 3-[1-(1-Methylethyl)-3-phenyl-1H-pyrazol-4-yl]-1-[3-(trifluoromethyl)phenyl]pyridazin-4(1H)-one] reads 138 to 140 °C.
